pIC50: −log10 of the molar value.
Tests used:
[1] = Octanol/water partition coefficient (log P); type: physicochemical; conditions: octanol/PBS; mean ± SD n = 6
Experimental: Octanol/water partition coefficient (P) was determined as described before (Petrik et al. [2012]). Briefly, 600 µL PBS was added to the total volume of the ⁶⁸Ga-P15. New tube was filled with 50 µL of the above-mentioned solution, 500 µL octanol and 450 µL PBS. Five more samples were prepared in this way and then placed on an orbital shaker for 20 min. The samples were then centrifuged at 15,000 rpm for 1 min. After centrifugation, two samples were taken from each tube, one from the octanol and the other from the aqueous phase. The radioactivity of these samples was measured using an automated gamma computer and the formula log P = log(Aoctanol/AH2O) was employed to calculate log P. The same procedure was applied when determining the partition coefficient of ⁶⁸Ga-P16, ⁶⁸Ga-P19, and ⁶⁸Ga-PSMA-617.

[2] = Stability in human plasma/serum (radiochemical purity by HPLC); type: in vitro ADME; conditions: for Stability in human serum (%): radiochemical purity, 37 °C, n = 1
Experimental: (§1) Quality control, i.e. radiochemical purity, of the ^68Ga-labelled PSMA inhibitors was evaluated by analytical high performance liquid chromatography (HPLC; Dionex UltiMate 3000, Thermo Scientific, Waltham, Massachusetts, USA) using the following equipment: ACE 3 C18 column; 150 × 3 mm, 3 μm (Advanced Chromatography Technologies Ltd, Aberdeen, UK), with gradient elution A: H2O/acetonitrile (ACN); B:0.1% trifluoroacetic acid (TFA)/H2O: 0–3 min, 0% ACN; 3–10 min, 0 − 50% ACN; 10–13 min, 50 − 80% ACN; 13–15 min, 80–0% ACN, for 15 min at a flow rate of 1 mL/min. Radiometric detection was performed using a GABI Star radiodetector (Raytest GmbH, Straubenhardt, Germany) and for chromatogram quantification Chromatography Data System (CDS) - Chromeleon software (Thermo Scientific, USA) was used. The actual sample injection was performed using a Hamilton microinjector (Hamilton, USA).
Plasma stability was determined as follows. To 100 µL of ⁶⁸Ga-P15 with radioactivity of 45 kBq/100 µL, 400 µL of human plasma was added and mixed. The mixture was incubated at 37 °C and 100 µL samples were taken at 30, 60 and 120 min. These samples were then mixed with 200 µL of acetonitrile and placed on a shaker for 1 min. The sample was then centrifuged at 15,000 rpm for 3 min. After centrifugation, the supernatant was collected for radiochemical purity analysis by HPLC. The same procedure was applied when determining plasma stability of ⁶⁸Ga-P16, ⁶⁸Ga-P19, and ⁶⁸Ga-PSMA-617.

[3] = Radiochemical stability in physiological pH water environment; type: physicochemical; conditions: radiochemical purity, pH 7, 37 °C, n = 1
Experimental: as §1
Radiochemical stability in a physiological pH water environment was determined as follows: 100 µL of acetate buffer (1.1 mol/L) was added to the labelled preparation and the pH was then checked with a pH indicator paper to be 7. The mixture was further incubated at 37 °C and after 30, 60 and 120 min, 10 µL aliquot was used for HPLC analysis of radiochemical purity.

PSMA (LNCaP cells) = target: T1, PSMA (LNCaP cells) (Homo sapiens, UniProt Q04609); test: Competition assay on LNCaP cells against [68Ga]Ga-PSMA-617; type: binding; conditions: for pIC50: competition with 5 nM [68Ga]Ga-PSMA-617, 60 min, 37 °C
T1 construct: host or cells: LNCaP
Experimental: The competition assay, LNCaP cells were seeded into poly-L-lysine coated 24-well plates in amount of 0.5 × 10^6 cells/well 24 h prior to the competition assay. The tested ligands (^68Ga-P15, ^68Ga-P16 and ^68Ga-P19) were added to the wells in concentrations 0, 1, 5, 10, 25, 50, 100, 500, 1000 and 5000 nM in triplicates. Afterwards, ^68Ga-labelled PSMA-617 was added to each well so its final concentration was 5 nM. All the ligands in this assay were dissolved in the buffer containing 25 mM Tris-HCl, 5.4 mM KCl, 1.8 mM CaCl2, 0.8 mM MgSO4, 5 mM glucose, and 140 mM NaCl in H2O (pH adjusted to 7.4). ^68Ga-PSMA-617 was incubated on cells for 60 min at 37 °C followed by its removal and washing the cells with PBS. Finally, the cells were disintegrated using 0.1 M NaOH and transferred into the scintillation vials for the gamma counting. The IC50 values were calculated by fitting the data using a nonlinear regression algorithm (GraphPad PRISM 7.0) and the data were assessed by t-test.

[4] = Stability in human plasma/serum (radiochemical purity by HPLC); type: in vitro ADME; conditions: 37 °C, incubation time 0 min, n = 1

T1 sequence (Q04609 whole entry): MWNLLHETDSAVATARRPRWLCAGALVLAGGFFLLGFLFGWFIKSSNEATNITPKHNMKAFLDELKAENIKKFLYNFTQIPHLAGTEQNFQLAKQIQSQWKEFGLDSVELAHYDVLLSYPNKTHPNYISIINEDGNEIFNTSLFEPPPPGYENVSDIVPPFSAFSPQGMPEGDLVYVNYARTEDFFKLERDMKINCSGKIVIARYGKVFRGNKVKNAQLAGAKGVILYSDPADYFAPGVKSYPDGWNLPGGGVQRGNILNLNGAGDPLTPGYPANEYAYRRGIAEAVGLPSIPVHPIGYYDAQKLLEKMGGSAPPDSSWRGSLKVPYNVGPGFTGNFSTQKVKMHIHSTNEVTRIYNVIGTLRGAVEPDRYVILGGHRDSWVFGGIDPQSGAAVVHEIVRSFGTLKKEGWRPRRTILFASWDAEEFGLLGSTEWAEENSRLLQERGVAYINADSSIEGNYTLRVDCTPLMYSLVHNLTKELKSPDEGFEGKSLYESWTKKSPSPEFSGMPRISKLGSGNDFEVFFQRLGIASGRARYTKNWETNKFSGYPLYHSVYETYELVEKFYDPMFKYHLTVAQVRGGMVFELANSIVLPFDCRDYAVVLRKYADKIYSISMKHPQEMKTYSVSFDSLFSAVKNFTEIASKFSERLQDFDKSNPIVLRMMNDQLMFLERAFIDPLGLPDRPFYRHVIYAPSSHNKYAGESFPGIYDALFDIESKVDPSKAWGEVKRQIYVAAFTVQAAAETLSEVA

Row | Structure (SMILES) | Log P [1] | Stability in human serum (%) ([2]; incubation time 30 min) | Stability in human serum (%) ([2]; incubation time 60 min) | Stability in human serum (%) ([2]; incubation time 120 min) | Stability in Physiological pH (%) ([3]; incubation time 0 min) | Stability in Physiological pH (%) ([3]; incubation time 30 min) | Stability in Physiological pH (%) ([3]; incubation time 60 min) | Stability in Physiological pH (%) ([3]; incubation time 120 min) | IC50 fold higher than that of [68Ga]Ga-P16 (PSMA (LNCaP cells); competition assay) [fold] | pIC50 (PSMA (LNCaP cells)) | Stability in human serum (%) [4] [%] | Radiochemical purity in human blood serum/plasma ([2]; 37 °C, 30, 60 and 120 min)
1 | O=C([O-])CN1CCN(CC(=O)[O-])CCN(CC(=O)N[C@H]2CC[C@H](NC(=O)[C@@H](Cc3ccc4ccccc4c3)NC(=O)CC[C@H](NC(=O)N[C@@H](CCC(=O)O)C(=O)O)C(=O)O)CC2)CCN(CC(=O)[O-])CC1.[68Ga+3] [[^68Ga]Ga-P15] | –3,71 ± 0,14 | 98.9 | 99.8 | 99.4 | 99.0 | 98.8 | 98.7 | 99.2 | ~25 | 7.01 | 99.0 | 
2 | O=C([O-])CN1CCN(CC(=O)[O-])CCN(CC(=O)N[C@H]2CC[C@H](NC(=O)[C@H](Cc3ccc4ccccc4c3)NC(=O)CC[C@H](NC(=O)N[C@@H](CCC(=O)O)C(=O)O)C(=O)O)CC2)CCN(CC(=O)[O-])CC1.[68Ga+3] [[^68Ga]Ga-P16] | –3,07 ± 0,87 | 98.8 | 98.3 | 97.3 | 99.3 | 99.1 | 99.3 | 99.3 |  | 8.40 | 99.0 | above 97%
3 | O=C([O-])CN1CCN(CC(=O)[O-])CCN(CC(=O)NCc2ccc(C(=O)N[C@H](C(=O)NCCCC[C@H](NC(=O)N[C@@H](CCC(=O)O)C(=O)O)C(=O)O)C(c3ccccc3)c3ccccc3)cc2)CCN(CC(=O)[O-])CC1.[68Ga+3] [[^68Ga]Ga-P19] | –3,41 ± 0,13 | 99.3 | 99.8 | 99.9 | 99.8 | 99.5 | 99.5 | 99.6 |  | 7.02 | 99.0 | 
